Assay results as given in patent US9504692B2, “Selective inhibition of MALT1 protease by phenothiazine derivatives” (HELMHOLTZ ZENTRUM MUNCHEN, DEUTSCHES FORSCHUNGSZENTRUM FUR …, priority 2011, dated 2016).
Entries after “also recorded” stand apart in the source; their conditions may differ. Where two headings read alike, the source gives them in different places. *1 amine or outer side, *2 acyl side, *3 side chain or, on linkers, in order; H or OH if unused. Where a SMILES comes first, the peptide text is derived from it. [ ]: non-standard residue; d: D form. The star is where a group is joined. Sta = CC(C)C[C@H](N)[C@@H](O)CC(=O)O; Isovaleryl = CC(C)CC(=O)*; CO = O=C([*:1])[*:2]

Assays:
[1] = biological target: recombinant full length (FL) GSTMALT1 (Homo sapiens (Human), UniProt Q9UDY8); assay: Recombinant GSTMALT1 cleavage assay with Ac-LRSR-AMC; assay type: biochemical
Protocol: The MALT1 cleavage assay was used to screen ˜18000 small molecules of the ChemBioNet library at the Leibniz Institute for Molecular Pharmacology (FMP) in Berlin.^35 Screening volume was 11 μl in a 384-well non-binding assay plate (Corning) with […] GSTMALT1 against 10 μM final concentration of compounds. The assay was performed with 50 μM of Ac-LRSR-AMC substrate for 20 min at 30° C. As a negative control the recombinant MALT1 mutant C453A was used, as a medium inhibition control 1 nM of the Z-VRPR-FMK peptide.
To screen for small molecular weight compounds that can inhibit MALT1 protease activity, recombinant GSTMALT1 was purified from E. coli to establish an in vitro protease cleavage assay suitable for high throughput screening (HTS). GSTMALT1 was incubated for 1 h at 30° C. in the presence of 50 μM of the tetrapeptide substrate Ac-LRSR-AMC, which is derived from the MALT1 cleavage site in the C-terminus of BCL10.^7 Proteolytic activity was determined by measuring the increase of fluorescence, which is emitted after cleavage and the accompanying release of the fluorophore AMC (FIGS. 1A and B). […] Similar to arginine-lysine specific metacaspases, the MALT1 protease has a high preference for cleaving after an arginine residue.

AtMC4 = AtMC4 (Arabidopsis thaliana (Mouse-ear cress), UniProt O64517); conditions: cited from earlier work
AtMC9 = AtMC9 (Arabidopsis thaliana (Mouse-ear cress), UniProt Q9FYE1); conditions: cited from earlier work
primary human PBMCs = assay: IL-2 secretion of primary human PBMCs (ELISA); assay type: cell-based; conditions: 5 and 10 μM for 3 h; anti-CD3/CD28 20 h
[2] = tested on: primary murine CD4+ T-cells; assay: IL-2 mRNA (qPCR) and protein (ELISA) in primary murine CD4+ T cells; assay type: cell-based, mouse; conditions: 5 and 10 μM
ABC-DLBCL cells [3] = assay: Apoptosis by AnnexinV-PE/7-AAD FACS, ABC-DLBCL cells; assay type: cell-based; conditions: 15 μM, five days
Protocol: (§1) Viability of DLBCL cell lines was analysed with a cell count assay of trypan blue stained cells after four days and by MTT (3-4,5-Dimethylthiazol-2-yl-2,5-diphenyltetrazoliumbromid) cytotoxicity test after two days of dose-dependent inhibitor treatment in comparison to DMSO treated control cells. The cell-dependent reduction of MTT to formazan was measured at λ=450 nm with a μQuant microplate spectrophotometer (Biotek). Apoptosis rates were determined with PE-Annexin V staining of 7AAD^− cells (BD Pharmingen) by FACS analysis (LSRII, BD) after five days of compound treatment. Data was analyzed using FlowJo software (Treestar).

[4] = tested on: GCB-DLBCL cell line Su-DHL-6; assay: Murine DLBCL xenogeneic tumor model, GCB-DLBCL Su-DHL-6; assay type: in vivo, NSG mice
Protocol: (§2) (A) Transplantation of OCI-Ly10 or Su-DHL-6 cells resuspended in matrigel (BD) into the flanks of NOD.Cg-Prkdc^scid ll2rg^tm1Wjl/SzJ (NSG) mice was carried out on day 0. Tumor size was determined by caliper measurement. […] Apoptosis was determined on tumor sections by TUNEL staining after 22 days of treatment. Pictures show staining of representative tumor sections. […] Expression of RelB and the MALT1-dependent cleavage product RelBΔ were detected in extracts of OCI-Ly10 tumor specimens by Western Blotting after 22 days.
(§3) For this purpose, the ABC-DLBCL cell line OCI-Ly10 and the GCB-DLBCL cell line Su-DHL-6 were injected as subcutaneous xenografts into NOD/scid IL-2Rg^null (NSG) mice (FIG. 8A). Both tumor cell lines were engrafted simultaneously on opposite flanks of individual mice.
(§4) Transplanted tumors were removed at the end of the treatment period and apoptotic cells were visualized by TUNEL staining on sections of the tumor tissue (FIG. 8B).

ABC-DLBCL cells [5] = assay: IL-6 and IL-10 secretion of ABC-DLBCL cells (ELISA); conditions: 20 h; ABC cell lines
Protocol: Whole cell extracts, Western blotting and EMSA were performed as described previously.^9 Antibodies used were BCL-XL (Cell signaling), MALT1 (H300, B12), BCL10 (H197), c-FLIP (Alexis Biochemicals) and β-Actin (I-19). BCL10 cleavage was visualized after 20 h treatment of diffuse large B-cell lymphoma cells with different doses of PD.

NF-κB = NF-κB DNA binding (EMSA) and NF-κB target proteins in ABC-DLBCL cells; assay type: cell-based; conditions: 10 and 20 μM
[6] = tested on: GCB-DLBCL cell lines BJAB, Su-DHL-6 and Su-DHL-4; assay: MTT cytotoxicity test, GCB-DLBCL cells; assay type: cell-based; conditions: two days, single treatment, increasing concentrations
Protocol: as §1
(§5) Further, cell viability was determined by cell counting after 4 days of treatment (FIG. 7B, D and FIG. 12C).

Jurkat T cells = assay: IL-2 secretion of Jurkat T cells (ELISA); assay type: cell-based, human; conditions: 5 and 10 μM; P/I or anti-CD3/CD28 for 20 h
[7] = tested on: ABC-DLBCL cells HBL1, OCI-Ly3, U2932 and TMD8; assay: MTT cytotoxicity test, ABC-DLBCL cells; assay type: cell-based; conditions: two days, single treatment, increasing concentrations
Protocol: as §1, §5

[8] = tested on: ABC-DLBCL cell line OCI-Ly10; assay: Murine DLBCL xenogeneic tumor model, ABC-DLBCL OCI-Ly10; assay type: in vivo, NSG mice
Protocol: as §2, §3, §4

GCB-DLBCL cells [9] = assay: Apoptosis by AnnexinV-PE/7-AAD FACS, GCB-DLBCL cells; assay type: cell-based; conditions: 15 μM, five days
Protocol: as §1

GCB-DLBCL cells [10] = assay: Viability by cell counting, GCB-DLBCL cells; assay type: cell-based; conditions: 4 days of treatment
Protocol: as §1, §5

ABC-DLBCL cells [11] = assay: Viability by cell counting, ABC-DLBCL cells; assay type: cell-based; conditions: 4 days of treatment
Protocol: as §1, §5

human recombinant CASP8 = human recombinant CASP8 (Homo sapiens (Human), UniProt Q14790); assay: CASP8 cleavage assay with Ac-DEVD-AMC; assay type: biochemical; conditions: 50 pM; picomolar concentrations
Protocol: After incubation of 16 h at 4° C.

[12] = daily i.p., mepazine 12 mg/kg or thioridazine 16 mg/kg, 22 days

Sequence of recombinant full length (FL) GSTMALT1 (Q9UDY8 other isoform, or with tags, fused parts or gaps): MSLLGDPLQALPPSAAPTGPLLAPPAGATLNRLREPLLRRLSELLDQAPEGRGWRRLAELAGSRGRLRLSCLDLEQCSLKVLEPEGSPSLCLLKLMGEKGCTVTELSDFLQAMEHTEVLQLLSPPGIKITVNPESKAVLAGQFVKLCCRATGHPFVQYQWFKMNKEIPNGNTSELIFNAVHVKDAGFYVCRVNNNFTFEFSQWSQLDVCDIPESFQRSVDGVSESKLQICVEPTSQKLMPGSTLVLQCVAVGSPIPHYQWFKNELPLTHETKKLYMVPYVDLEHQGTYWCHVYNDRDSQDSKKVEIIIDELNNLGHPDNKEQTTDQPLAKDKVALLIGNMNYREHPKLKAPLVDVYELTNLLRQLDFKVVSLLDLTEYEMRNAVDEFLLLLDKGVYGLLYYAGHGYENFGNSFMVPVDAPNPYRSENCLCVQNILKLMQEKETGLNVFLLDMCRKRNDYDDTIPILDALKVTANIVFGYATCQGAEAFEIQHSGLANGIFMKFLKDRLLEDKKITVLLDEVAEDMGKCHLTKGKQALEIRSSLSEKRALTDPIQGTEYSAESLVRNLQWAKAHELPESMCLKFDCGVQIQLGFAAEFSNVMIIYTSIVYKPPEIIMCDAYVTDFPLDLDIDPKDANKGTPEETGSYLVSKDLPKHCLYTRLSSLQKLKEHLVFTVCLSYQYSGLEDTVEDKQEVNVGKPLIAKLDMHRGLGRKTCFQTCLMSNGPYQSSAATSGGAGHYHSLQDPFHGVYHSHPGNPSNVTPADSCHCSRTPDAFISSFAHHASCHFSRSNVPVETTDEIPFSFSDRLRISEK
Sequence of AtMC9 (Q9FYE1 whole entry): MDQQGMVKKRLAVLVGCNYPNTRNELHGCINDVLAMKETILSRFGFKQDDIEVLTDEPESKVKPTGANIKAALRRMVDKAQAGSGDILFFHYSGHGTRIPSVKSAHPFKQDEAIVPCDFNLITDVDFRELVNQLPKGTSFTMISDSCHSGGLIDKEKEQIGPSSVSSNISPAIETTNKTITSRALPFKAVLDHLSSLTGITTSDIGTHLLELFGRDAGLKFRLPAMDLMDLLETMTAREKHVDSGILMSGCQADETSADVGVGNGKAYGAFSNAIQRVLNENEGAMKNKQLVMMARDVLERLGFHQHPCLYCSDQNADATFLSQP
Sequence of AtMC4 (O64517 whole entry): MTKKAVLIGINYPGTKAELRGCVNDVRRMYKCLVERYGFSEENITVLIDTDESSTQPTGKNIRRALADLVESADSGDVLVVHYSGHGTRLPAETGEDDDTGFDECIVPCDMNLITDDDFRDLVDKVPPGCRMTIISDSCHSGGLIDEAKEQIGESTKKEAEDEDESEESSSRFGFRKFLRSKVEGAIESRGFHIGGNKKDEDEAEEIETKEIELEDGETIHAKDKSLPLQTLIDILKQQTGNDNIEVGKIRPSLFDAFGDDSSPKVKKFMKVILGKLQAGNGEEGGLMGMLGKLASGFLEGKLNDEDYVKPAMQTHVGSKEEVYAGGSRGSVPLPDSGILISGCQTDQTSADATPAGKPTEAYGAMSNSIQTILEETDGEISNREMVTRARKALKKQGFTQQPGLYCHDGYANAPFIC
Sequence of human recombinant CASP8 (Q14790 217-374): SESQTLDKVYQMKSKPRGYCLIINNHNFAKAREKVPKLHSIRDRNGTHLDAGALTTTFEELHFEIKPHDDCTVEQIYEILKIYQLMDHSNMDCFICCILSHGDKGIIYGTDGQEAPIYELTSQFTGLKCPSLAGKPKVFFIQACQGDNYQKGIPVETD
Sequence of human recombinant CASP8 (Q14790 385-479): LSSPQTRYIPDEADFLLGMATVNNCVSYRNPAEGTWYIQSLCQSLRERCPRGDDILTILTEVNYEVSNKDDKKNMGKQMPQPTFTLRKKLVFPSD

Compound: CC(C)[C@H](NC(=O)[C@H](CCCNC(=N)N)NC(=O)N[C@@H](Cc1ccccc1)C(=O)O)C(=O)N[C@H](C=O)CCCNC(=N)N [Antipain] ({Phe-CO}-Arg-Val-Arg-aldehyde)
- effect on MALT1 activity ([1]; 1 μM inhibitor): diminished; also recorded: inhibited
- effect on AtMC4 (AtMC4; 1 μM inhibitor): inhibited
- effect on AtMC9 (AtMC9; 1 μM inhibitor): inhibited

Compound: CC(C)C[C@H](NC(=O)[C@@H](NC(=O)N[C@@H](Cc1ccccc1)C(=O)O)[C@@H]1CCN=C(N)N1)C(=O)N[C@H](C=O)Cc1ccccc1 [Chymostatin]
- effect on MALT1 activity ([1]; 100 μM inhibitor): diminished; also recorded: inhibited
- effect on AtMC4 (AtMC4; 100 μM inhibitor): inhibited
- effect on AtMC9 (AtMC9; 100 μM inhibitor): inhibited

Compound: CC(C)C[C@H](NC(=O)[C@H]1O[C@@H]1C(=O)O)C(=O)NCCCCN=C(N)N [E-64]
- effect on MALT1 activity ([1]; 100 μM inhibitor): does not inhibit MALT1
- effect on AtMC4 (AtMC4; 100 μM inhibitor): mild effect
- effect on AtMC9 (AtMC9; 100 μM inhibitor): not AtMC9

Compound: CC(=O)N[C@@H](CC(C)C)C(=O)N[C@@H](CC(C)C)C(=O)N[C@H](C=O)CCCNC(=N)N [Leupeptin]
- effect on AtMC4 (AtMC4; 1 μM inhibitor): acting stronger on plant metacaspases
- effect on AtMC9 (AtMC9; 1 μM inhibitor): acting stronger on plant metacaspases

Compound: CC(C)CC(=O)N[C@H](C(=O)N[C@H](C(=O)N[C@@H](CC(C)C)[C@@H](O)CC(=O)N[C@@H](C)C(=O)N[C@@H](CC(C)C)[C@@H](O)CC(=O)O)C(C)C)C(C)C [Pepstatin A] (Isovaleryl-VV[Sta]A[Sta]-OH)
- effect on MALT1 activity ([1]; 100 μM inhibitor): no effects

Compound: Cc1ccc(S(=O)(=O)NC(CCCCN)C(=O)CCl)cc1 (stereo not shown) [TLCK]
- effect on MALT1 activity ([1]; 1 μM inhibitor): no effects; also recorded: only mildly affecting MALT1 activity
- effect on AtMC4 (AtMC4; 1 μM inhibitor): much weaker
- effect on AtMC9 (AtMC9; 1 μM inhibitor): strongly inhibits

Compound: CN1CCCC(CN2c3ccccc3Sc3ccccc32)C1 (stereo not shown) [mepazine, 10-[(1-methyl-3-piperidinyl)methyl]-10H-phenothiazine acetate]
- IL-2 secretion (primary human PBMCs): significant decrease of IL-2 secretion
- IL-2 mRNA induction ([2]; 3 h pre-treatment, anti-CD3/CD28 4 h): reduced in a dose-dependent manner
- IL-2 protein expression ([2]; anti-CD3/CD28 20 h): reduced in a dose-dependent manner
- apoptotic rate (ABC-DLBCL cells [3]): enhanced apoptotic rate
- apoptotic cells in tumor sections (TUNEL) ([4]; after 22 days of treatment): no induction of apoptosis
- tumor growth of Su-DHL-6 xenograft [4, 12]: completely failed to exert any inhibitory effects
- decrease of IL-6 and IL-10 secretion (ABC-DLBCL cells [5]): ~50%
- BCL-XL and FLIP-L protein levels (NF-κB; 20 h): dose-dependent decrease
- NF-κB target DNA binding (NF-κB; 20 hours): reduced NF-κB target DNA binding
- cell viability by MTT [6]: without significantly affecting GCB-DLBCL cells
- secreted IL-2 levels (Jurkat T cells): decrease of IL-2 levels
- cell viability by MTT [7]: promoted a decrease of cell viability
- constitutive RelB cleavage in OCI-Ly10 tumor specimens ([8]; Western Blot after 22 days): impaired
- apoptotic cells in tumor sections (TUNEL) ([8]; after 22 days of treatment): increased the number of apoptotic cells
- tumor growth of OCI-Ly10 xenograft [8, 12]: strongly impaired the expansion
- apoptotic rate (GCB-DLBCL cells [9]): apoptosis was not increased

Compound: c1ccc2c(c1)Nc1ccccc1S2 [phenothiazine]
- inhibition of GSTMALT1 activity ([1]; 1, 5 and 20 μM): inhibiting MALT1 activity in a dose-dependent manner

Compound: CC(CN1c2ccccc2Sc2ccccc21)N(C)C (stereo not shown) [promethazine]
- MALT1 inhibition ([1]; concentrations up to 20 μM): not inhibiting MALT1 protease activity; also recorded: did not cause any significant MALT1 inhibition
- number of viable cells / viability (GCB-DLBCL cells [10]): did not significantly inhibit viability
- number of viable cells / viability (ABC-DLBCL cells [11]): did not significantly inhibit viability

Compound: Ac-DEVD-CHO
- CASP8 activity against Ac-DEVD-AMC (human recombinant CASP8): almost total decline of enzymatic activity; also recorded: effectively blocked CASP8 activity
- effect on MALT1 activity ([1]; 200 μM inhibitor): not significantly active; also recorded: only marginally reduced MALT1 activity

Compound: Aprotinin
- effect on MALT1 activity ([1]; 5 μg/ml inhibitor): no effects

Compound: Z-VRPR-FMK
- decrease of MALT1 activity ([1]; 1 nM inhibitor, 50 μM Ac-LRSR-AMC, 1 h at 30° C.): ~50%
- MALT1 cleavage activity with increasing amounts of inhibitor ([1]; increasing amounts, low nanomolar concentrations): total loss of MALT1 activity; also recorded: completely blocked MALT1 cleavage activity
